US20050282818A1, “Ubiquitin ligase inhibitors” (Rigel Pharmaceuticals, Inc., priority 2004, published 2005)
Where two headings read alike, the source gives them in different places.

What was measured:
[1] = test system: UACC-257 cells; test: Cell proliferation PAD assay, UACC-257; format: cell-based; conditions: Homo sapiens, UACC257 cells, 6pt, 48 hours
Method: (§1) Cell lines used are available from American Type Culture Collection (ATCC), for example, cell cultures containing A549 (ATCC# CCL-185), HeLa (ATCC# CCL-2), HCT116 ATTC# CCL-247), and H1299 (ATCC# CRL-5803) cells were maintained in T175 flasks following the ATCC recommended media and handling procedures. […] A 20,000 cells/ml solution was made for plating. Cells were plated in black Packard 96 well plates by placing 100 μl per well (2,000 cells per well). […] The definitions of the cell types used are as follows: A549 is lung carcinoma; HI 299 is non-small cell lung carcinoma; HI 155 is non-small cell lung carcinoma; AsPC-1 is pancreatic adenocarcinoma; Caov-3 is ovarian adenocarcinoma; COLO 205 is colorectal adenocarcinoma; DLD-1 colorectal adenocarcinoma; HCT116 is colorectal carcinoma; DU 145 is prostate carcinoma; ES-2 is ovarian clear cell carcinoma; H460 is large cell lung carcinoma; HELA is cervical adenocarcinoma; MIA PaCa-2 is pancreatice carcinoma; OVCAR-3 is ovarian adenocarcinoma; OVCAR8 is ovarian carcinoma; PC3 is prostate adenocarcinoma; SK-OV-3 is ovarian adenocarcinoma; SU86.86 is pancreatic carcinoma; TOV-21G is avarian clear cell carcinoma; U2OS is bone osteosarcoma; is ASPC-I is pancreatic adenocarcinoma; BXPC-3 is pabcreatic adenocarcinoma; HL60 is promyeloblast promyelocytic leukemia; K562 is bone marrow chronic myelogenous leukemia; L1210 is mouse lymphocytic leukemia; MOLT3 is T lymphoblast acute lymphoblastic leukemia; MOLT4 is T lymphoblast acute lymphoblastic leukemia; SW620 is colorectal adenocarcinoma; THP-1 is monocyte acute monocytic leukemia; U937 is histiocytic lymphoma; and UACC-257 is melanoma.
(§2) Compounds and additional media were added 24 hours after cell plating. […] All compound testing was done in duplicate using 6.3 fold dilutions starting with 10 mM. […] Taxol and at least one additional control were run on all plates. Three microliters of the compound master plate were added to deep well blocks containing 750 μl of RPMI media. One hundred microliters were transferred from the compound/media deep well blocks to the plated cells resulting in a 500 fold dilution of the compounds. Cells were grown at 37° C., 5% CO2 for 48 hours.
(§3) Cells to be analyzed by photography were fixed and stained. One hundred microliters of media were removed and 100 μl of 9.3% formamide was added to each well. Plates were left on the benchtop for 45 minutes. A staining solution containing 1.55 μl of 1 mg/ml DAPI added to 18.75 ml PBS was warmed for 15 minutes at 37° C. The cells were aspirated prior to washing with 100 μl of PBS. Seventy microliters of PBS were aspirated and 170 μl of the DAPI solution were added to each well of fixed cells. Plates were left at room temperature for one hour then aspirated and washed twice with 100 μl of PBS. The stained cells were left at 4° C. for a minimum of 16 hours before photographic analysis with Array Scan II (Cellomics). Analysis of the photographic images to determine numbers of live cells (proliferation), apoptotic cells and dead cells, were according to the methods described in U.S. Utility patent application Ser. No. 10/652,440, which incorporated herein in its entirety.

[2] = test system: H1299 cells; test: Cell proliferation PAD assay, H1299; format: cell-based; conditions: Homo sapiens, 48 hours
Method in brief: (§4)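 Cells plated at 2,000/well; compounds added 24 h later as 6.3-fold dilutions from a 10 mM master stock, diluted 500-fold into wells, in duplicate. After 48 h at 37 °C, 5% CO2, cells were formamide-fixed, DAPI-stained and imaged to count live, apoptotic and dead cells.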

[3] = test system: OVCAR8 cells; test: Cell proliferation PAD assay, OVCAR8; format: cell-based; conditions: Homo sapiens, OVCAR-8, 6pt, 48 hours
Method: as §1, §2, §3

[4] = test system: A549 cells; test: Cell proliferation PAD assay, A549; format: cell-based; conditions: Homo sapiens, 48 hours
Method in brief: as §4

[5] = molecular target: T1, TRAF6/Uev1A/Ubc13 (Homo sapiens, UniProt Q9Y4K3); test: TRAF6/Uev1A/Ubc13 plate-based ubiquitin ligase assay; format: biochemical
T1 sequence (Q9Y4K3 1-522): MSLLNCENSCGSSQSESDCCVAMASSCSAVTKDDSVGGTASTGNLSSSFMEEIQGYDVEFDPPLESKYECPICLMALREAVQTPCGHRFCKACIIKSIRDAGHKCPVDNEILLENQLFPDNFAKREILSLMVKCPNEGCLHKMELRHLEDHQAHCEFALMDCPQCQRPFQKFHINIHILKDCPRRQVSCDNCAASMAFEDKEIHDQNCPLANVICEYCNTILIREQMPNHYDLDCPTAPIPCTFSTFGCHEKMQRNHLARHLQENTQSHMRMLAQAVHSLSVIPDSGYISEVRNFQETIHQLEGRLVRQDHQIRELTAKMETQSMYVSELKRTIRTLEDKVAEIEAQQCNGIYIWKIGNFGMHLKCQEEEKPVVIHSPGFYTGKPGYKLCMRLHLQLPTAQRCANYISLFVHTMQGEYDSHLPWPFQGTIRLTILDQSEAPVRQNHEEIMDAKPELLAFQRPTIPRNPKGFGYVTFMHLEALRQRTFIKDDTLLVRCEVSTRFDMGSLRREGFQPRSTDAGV
Method in brief: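 Ligase activity was read as luminescence from anti-Flag/HRP detection of Flag-ubiquitin bound to casein-blocked Ni-plates alongside His-ubiquitin after a 1 h room-temperature reaction. Buffer: 62.5 mM Tris pH 7.5, 6.25 mM MgCl2, 1.0 mM DTT, 2 μM ATP; E1, Uev1a/Ubc13 and TRAF6 added last to start. IC50s derived across compound concentrations.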

[6] = test system: HCT116 cells; test: Cell proliferation PAD assay, HCT116; format: cell-based; conditions: Homo sapiens, 48 hours
Description: (§5) Table 3 illustrates the inhibitory activity of the compounds of the invention determined by the PAD assay described above in a number of cell types. Apoptosis was not
as §1
(§6) Compounds and additional media were added 24 hours after cell plating. A compound master plate was created with concentrations 500 times greater than the final concentration added to the cells. All compound testing was done in duplicate using 6.3 fold dilutions starting with 10 mM. All outside wells (and 4 internal wells) were DMSO controls. Taxol and at least one additional control were run on all plates. Three microliters of the compound master plate were added to deep well blocks containing 750 μl of RPMI media. One hundred microliters were transferred from the compound/media deep well blocks to the plated cells resulting in a 500 fold dilution of the compounds. Cells were grown at 37° C., 5% CO2 for 48 hours.
as §3

[7] = test system: U2OS cells; test: Cell proliferation PAD assay, U2OS; format: cell-based; conditions: Homo sapiens, 6pt, 48 hours
Description: as §5, §1, §6, §3

[8] = test system: HELA cells; test: Cell proliferation PAD assay, HeLa; format: cell-based; conditions: Homo sapiens, 6pt, 48 hours
Description: as §5, §1, §6, §3

[9] = test system: DLD-1 cells; test: Cell proliferation PAD assay, DLD-1; format: cell-based; conditions: Homo sapiens, DLD1 cells, 6pt, 48 hours
Description: as §5, §1, §6, §3

[10] = test system: MIA PaCa-2 cells; test: Cell proliferation PAD assay, MIA PaCa-2; format: cell-based; conditions: Homo sapiens, Miapaca2 cells, 9pt, 48 hours
Description: as §5
(§7) Cell lines used are available from American Type Culture Collection (ATCC), for example, cell cultures containing A549 (ATCC# CCL-185), HeLa (ATCC# CCL-2), HCT116 ATTC# CCL-247), and H1299 (ATCC# CRL-5803) cells were maintained in T175 flasks following the ATCC recommended media and handling procedures. […] A 20,000 cells/ml solution was made for plating. Cells were plated in black Packard 96 well plates by placing 100 μl per well (2,000 cells per well). […]
(§8) Cells to be analyzed by photography were fixed and stained. […]

[11] = test system: COLO 205 cells; test: Cell proliferation PAD assay, COLO 205; format: cell-based; conditions: Homo sapiens, Colo205 cells, 9pt, 48 hours
Description: as §5, §7, §8

[12] = NCI-H1299, 3pt, read-out: H1299 3pt
[13] = NCI-H1299, 6pt, read-out: H1299 6pt
[14] = HCT-116, 6pt, read-out: HCT116 6pt

Structure (SMILES) | IC50 [2, 12] [µM] | IC50 [2, 13] [µM] | IC50 [3] [µM] | IC50 ([4]; 3pt, read-out: A549 3pt) [µM] | IC50 ([4]; 6pt, read-out: A549 6pt) [µM] | IC50 [5] [µM] | IC50 [6, 14] [nM] | IC50 [7] [nM] | IC50 [8] [µM] | IC50 [9] [nM] | IC50 [10] [nM] | IC50 ([6]; HCT-116, 9pt, read-out: HCT116 9pt) [nM] | IC50 [11] [µM] | IC50 [1] [µM]
COC(=O)c1ccc(Nc2ccc(S(=O)(=O)Nc3ccc(C(=O)OC)cc3)c3nonc23)cc1 [compound 9, Methyl 4-{[(7-{[4-(methoxycarbonyl)phenyl]amino}-2,1,3-benzoxadiazol-4-yl)sulfonyl]amino}benzoate] | ≥ 20 | ≥ 20 | ≥ 20 | ≥ 20 | 1 to 20 | ≥ 20 |  |  |  |  |  |  |  | ≥ 20
COc1ccccc1NS(=O)(=O)c1cccc2nonc12 [compound 11, N-(2-methoxyphenyl)-2,1,3-benzoxadiazole-4-sulfonamide] | ≥ 20 |  | ≥ 20 | ≥ 20 |  | 1 to 20 |  |  |  |  |  |  |  | ≥ 20
O=S(=O)(Nc1ccncc1)c1ccc2nonc2c1 [compound 26, N-pyridin-4-yl-2,1,3-benzoxadiazole-5-sulfonamide] | ≥ 20 |  | ≥ 20 | ≥ 20 |  |  |  |  |  |  |  |  |  | ≥ 20
O=C(CN1CCN(c2ccc([N+](=O)[O-])c3nonc23)CC1)N1CCOCC1 [compound 107, 4-[4-(2-morpholin-4-yl-2-oxoethyl)piperazin-1-yl]-7-nitro-2,1,3-benzoxadiazole] | ≥ 20 | ≥ 20 | ≥ 20 | ≥ 20 | ≥ 20 | ≥ 20 |  |  |  |  |  |  |  | ≥ 20
O=S(=O)(c1ccc(Cl)c2nonc12)N1CCN(c2ncc(C(F)(F)F)cc2Cl)CC1 [compound 169, 4-chloro-7-({4-[3-chloro-5-(trifluoromethyl)pyridin-2-yl]piperazin-1-yl}sulfonyl)-2,1,3-benzoxadiazole] | ≥ 20 | < 1 |  | ≥ 20 | 1 to 20 | 1 to 20 |  | < 1000 |  |  |  |  |  | 
Cc1cccc(N2CCN(S(=O)(=O)c3ccc(Cl)c4nonc34)CC2)n1 [compound 194, 4-chloro-7-{[4-(6-methylpyridin-2-yl)piperazin-1-yl]sulfonyl}-2,1,3-benzoxadiazole] | 1 to 20 | ≥ 20 |  | ≥ 20 | ≥ 20 | ≥ 20 |  | < 1000 |  |  |  |  |  | 
O=S(=O)(Nc1ccc2[nH]ncc2c1)c1ccc(Cl)c2nonc12 [compound 218, 7-chloro-N-1H-indazol-5-yl-2,1,3-benzoxadiazole-4-sulfonamide] | 1 to 20 | 1 to 20 |  | ≥ 20 | ≥ 20 | ≥ 20 | 1000 to 20000 | 1000 to 20000 | 1 to 20 | 1000 to 20000 |  |  |  | 
O=S(=O)(Nc1ccc2cn[nH]c2c1)c1c(Cl)ccc2nonc12 [compound 219, 5-chloro-N-1H-indazol-6-yl-2,1,3-benzoxadiazole-4-sulfonamide] | 1 to 20 | < 1 |  | 1 to 20 | ≥ 20 | 1 to 20 | < 1000 | < 1000 | ≥ 20 | < 1000 | < 1000 | < 1000 | 1 to 20 | 

The next lines start with results.

IC50 [2, 12] [µM] | IC50 [2, 13] [µM] | IC50 [3] [µM] | IC50 ([4]; 3pt, read-out: A549 3pt) [µM] | IC50 ([4]; 6pt, read-out: A549 6pt) [µM] | IC50 [5] [µM] | IC50 [6, 14] [nM] | IC50 [7] [nM] | IC50 [8] [µM] | IC50 [9] [nM] | IC50 [10] [nM] | IC50 ([6]; HCT-116, 9pt, read-out: HCT116 9pt) [nM] | IC50 [11] [µM] | Structure (SMILES) | IC50 [1] [µM]
1 to 20 | < 1 |  | 1 to 20 | < 1 |  | 1000 to 20000 | < 1000 | 1 to 20 | < 1000 |  |  |  | O=S(=O)(Nc1cccc2cccnc12)c1cccc2nonc12 [compound 64, N-quinolin-8-yl-2,1,3-benzoxadiazole-4-sulfonamide] | 
1 to 20 | 1 to 20 | 1 to 20 | 1 to 20 | 1 to 20 | 1 to 20 |  |  |  |  |  |  |  | O=[N+]([O-])c1cc(Cl)c(Oc2ccc(S(=O)(=O)Nc3cccc4nonc34)cc2Cl)c(Cl)c1 [compound 79, N-2,1,3-benzoxadiazol-4-yl-3-chloro-4-(2,6-dichloro-4-nitrophenoxy)benzenesulfonamide] | ≥ 20
1 to 20 | 1 to 20 |  | 1 to 20 | 1 to 20 | < 1 |  | ≥ 20000 |  |  |  |  |  | O=S(=O)(c1ccc(F)c2nonc12)N1CCN(c2ncc(C(F)(F)F)cc2Cl)CC1 [compound 164, 4-({4-[3-chloro-5-(trifluoromethyl)pyridin-2-yl]piperazin-1-yl}sulfonyl)-7-fluoro-2,1,3-benzoxadiazole] | 
< 1 | < 1 |  | 1 to 20 | ≥ 20 | ≥ 20 | 1000 to 20000 | < 1000 | 1 to 20 | < 1000 |  |  |  | CC1CN(S(=O)(=O)c2c(Cl)ccc3nonc23)CC(C)O1 (centres unmarked) [compound 204, 5-chloro-4-[(2,6-dimethylmorpholin-4-yl)sulfonyl]-2,1,3-benzoxadiazole] | 
